Active and inactive are the calls of the source. The rule behind the calls is not given here.
Assays:
[1] = target: T1, Steryl-sulfatase (Homo sapiens) (UniProt P08842); assay: Compound was tested for percent inhibitory activity against Estrone sulfatase 1 (E1-STS) at 0.10 uM in placental microsomes; details: Placenta
T1 sequence (whole entry): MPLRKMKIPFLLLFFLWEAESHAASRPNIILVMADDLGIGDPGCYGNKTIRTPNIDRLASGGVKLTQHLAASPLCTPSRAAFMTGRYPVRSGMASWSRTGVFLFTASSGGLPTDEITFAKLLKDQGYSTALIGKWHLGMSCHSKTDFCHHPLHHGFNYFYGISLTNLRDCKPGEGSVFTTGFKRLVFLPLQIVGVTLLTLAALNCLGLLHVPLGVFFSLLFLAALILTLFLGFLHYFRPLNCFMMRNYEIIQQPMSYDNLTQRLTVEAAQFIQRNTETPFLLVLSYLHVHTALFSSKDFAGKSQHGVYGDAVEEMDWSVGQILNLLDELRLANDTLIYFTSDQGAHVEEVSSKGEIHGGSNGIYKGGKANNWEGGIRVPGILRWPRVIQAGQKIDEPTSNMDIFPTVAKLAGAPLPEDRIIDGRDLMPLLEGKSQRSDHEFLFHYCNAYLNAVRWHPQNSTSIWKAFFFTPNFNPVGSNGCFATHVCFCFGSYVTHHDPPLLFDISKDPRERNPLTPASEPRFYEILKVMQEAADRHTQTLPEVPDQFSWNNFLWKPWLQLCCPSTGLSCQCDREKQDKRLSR

[2] = target: T1, Steryl-sulfatase (Homo sapiens); assay: Compound was tested for percent inhibitory activity against Estrone sulfatase 1 (E1-STS) at 0.20 uM in placental microsomes; details: Placenta
[3] = target: T1, Steryl-sulfatase (Homo sapiens); assay: Compound was tested for percent inhibitory activity against Estrone sulfatase 1 (E1-STS) at 10 uM in placental microsomes; details: Placenta
[4] = target: T1, Steryl-sulfatase (Homo sapiens); assay: Compound was tested for percent inhibitory activity against Estrone sulfatase 1 (E1-STS) at 25 uM in placental microsomes; details: Placenta
[5] = target: T1, Steryl-sulfatase (Homo sapiens); assay: In vitro percentage inhibition of Estrone sulfatase 1 (EI-STS) activity at concentration of 0.1 micro M in intact MCF-7 breast cancer cells; type: cell-based; details: MCF7
[6] = target: T1, Steryl-sulfatase (Homo sapiens); assay: Compound was tested for percent inhibitory activity against Estrone sulfatase 1 (E1-STS) at 100 uM in placental microsomes; details: Placenta
[7] = target: T1, Steryl-sulfatase (Homo sapiens); assay: Compound was tested for percent inhibitory activity against Estrone sulfatase 1 (E1-STS) at 20 uM in placental microsomes; details: Placenta
[8] = target: T1, Steryl-sulfatase (Homo sapiens); assay: Compound was tested for percent inhibitory activity against Estrone sulfatase 1 (E1-STS) at 50 uM in placental microsomes; details: Placenta
[9] = target: T2, Steryl-sulfatase (Rattus norvegicus) (UniProt P15589); assay: In vivo inhibition of rat liver Estrone sulfatase 1 (E1-STS) by oral or subcutaneous dose; Almost complete inhibition; type: organism-based
T2 sequence (whole entry): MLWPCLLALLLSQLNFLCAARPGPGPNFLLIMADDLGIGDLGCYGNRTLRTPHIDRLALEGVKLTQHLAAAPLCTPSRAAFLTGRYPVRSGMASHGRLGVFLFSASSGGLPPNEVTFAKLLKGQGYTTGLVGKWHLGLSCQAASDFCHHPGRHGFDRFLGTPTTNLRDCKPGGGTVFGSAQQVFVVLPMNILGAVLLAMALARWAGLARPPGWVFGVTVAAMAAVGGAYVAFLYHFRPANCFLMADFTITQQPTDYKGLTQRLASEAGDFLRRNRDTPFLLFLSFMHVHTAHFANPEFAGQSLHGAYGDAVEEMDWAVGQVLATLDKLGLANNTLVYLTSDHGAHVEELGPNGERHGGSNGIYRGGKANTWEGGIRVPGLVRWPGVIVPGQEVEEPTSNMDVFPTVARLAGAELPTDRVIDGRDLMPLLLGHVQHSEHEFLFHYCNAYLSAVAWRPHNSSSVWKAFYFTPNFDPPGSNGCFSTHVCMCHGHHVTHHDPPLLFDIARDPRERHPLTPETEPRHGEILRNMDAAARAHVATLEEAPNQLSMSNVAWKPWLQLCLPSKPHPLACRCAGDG

[10] = target: T1, Steryl-sulfatase (Homo sapiens); details: Placenta; Microsomes; 0.1 uM
Description: Compound was tested for percent inhibitory activity against Estrone sulfatase 1 (E1-STS) at 0.1 uM in placental microsomes

[11] = target: T1, Steryl-sulfatase (Homo sapiens); details: Placenta; Microsomes; 0.2 uM
Description: Compound was tested for percent inhibitory activity against Estrone sulfatase 1 (E1-STS) at 0.2 uM in placental microsomes

[12] = target: T1, Steryl-sulfatase (Homo sapiens); details: Placenta; Microsomes; 1.0 uM
Description: Compound was tested for percent inhibitory activity against Estrone sulfatase 1 (E1-STS) at 1.0 uM in placental microsomes

inhibition [5] [%] | inhibition [6] [%] | inhibition [7] [%] | inhibition [8] [%] | SMILES | other results
 |  |  |  | CC(=O)NS(=O)(=O)Oc1ccc2c(c1)CCC1[C@@H]2CC[C@]2(C)C(=O)CC[C@@H]12 (single isomer, unassigned) | inhibition [1]: 63%; inhibition [2]: 30%; inhibition [3]: 92%; inhibition [4]: > 99%
50 |  |  |  | CN(C)S(=O)(=O)Oc1ccc2c(c1)CCC1[C@@H]2CC[C@]2(C)C(=O)CC[C@@H]12 (single isomer, unassigned) | 
80 |  |  |  | CNS(=O)(=O)Oc1ccc2c(c1)CCC1[C@@H]2CC[C@]2(C)C(=O)CC[C@@H]12 (single isomer, unassigned) | 
 | 75 | 43 | 63 | C[C@]12CC[C@@H]3c4ccc(OS(=O)(=O)N(Cc5ccccc5)Cc5ccccc5)cc4CCC3[C@@H]1CCC2=O (single isomer, unassigned) | 
 | 20 | 13 | 17 | C[C@]12CC[C@@H]3c4ccc(OS(=O)(=O)N5CCCCC5)cc4CCC3[C@@H]1CCC2=O (single isomer, unassigned) | 
 |  |  |  | C[C@]12CC[C@@H]3c4ccc(OS(N)(=O)=O)cc4CCC3[C@@H]1CCC2=O (single isomer, unassigned) | inhibition [9]: Active; inhibition [10]: 50%; inhibition [11]: 82%; inhibition [12]: 95%
